Data published in ChEMBL document CHEMBL3046040, “Synthesis, cytostatic and anti-viral activity evaluation of the novel acyclic nucleoside analogues containing a sterically constrained (Z)-4-amino-2-butenyl moiety” (Med Chem Res, 2011).
Calls of active or inactive are those of the source. No cut-off for these calls is given here.

Key:
[1] = test system: Influenza A virus; assay: Antiviral activity against Unidentified Influenza A virus ([…]) infected MDCK cells assessed as inhibition of virus-induced cytopathic effect; format: functional, organism-based; settings: Influenza A virus (H1N1)
[2] = test system: Sindbis virus; assay: Antiviral activity against Sindbis virus infected Vero cells assessed as inhibition of virus-induced cytopathic effect; format: functional, organism-based
[3] = test system: HepG2; assay: Antiproliferative activity against Homo sapiens (human) HepG2 cells by MTT assay; format: functional, cell-based
[4] = test system: CCRF-CEM; assay: Cytostatic activity against Homo sapiens (human) CEM cells after 72 hr by Coulter counting analysis; format: functional, cell-based
[5] = test system: Human immunodeficiency virus 2; assay: Antiviral activity against Human immunodeficiency virus type 2 (ISOLATE ROD) infected CEM cells assessed as inhibition of virus-induced giant cell formation after 4 days by microscopic analysis; format: functional, organism-based; settings: Human immunodeficiency virus 2, ISOLATE ROD, CCRF-CEM, 96 h
[6] = test system: Coxsackievirus B4; assay: Antiviral activity against Human coxsackievirus B4 infected HeLa cells assessed as inhibition of virus-induced cytopathic effect; format: functional, organism-based
[7] = test system: Vesicular stomatitis virus; assay: Antiviral activity against Vesicular stomatitis virus infected HeLa cells assessed as inhibition of virus-induced cytopathic effect; format: functional, organism-based
[8] = test system: Human alphaherpesvirus 1; assay: Antiviral activity against Human herpesvirus 1 strain KOS infected in HEL cells assessed as inhibition of virus-induced cytopathic effect; format: functional, organism-based
[9] = test system: Influenza B virus; assay: Antiviral activity against Influenza B virus infected MDCK cells assessed as inhibition of virus-induced cytopathic effect; format: functional, organism-based
[10] = test system: HeLa; assay: Antiproliferative activity against Homo sapiens (human) HeLa cells by MTT assay; format: functional, cell-based
[11] = test system: Human respirovirus 3; assay: Antiviral activity against Human parainfluenza virus 3 infected Vero cells assessed as inhibition of virus-induced cytopathic effect; format: functional, organism-based
[12] = test system: Human immunodeficiency virus 1; assay: Antiviral activity against Human immunodeficiency virus 1 IIIB infected CEM cells assessed as inhibition of virus-induced giant cell formation after 4 days by microscopic analysis; format: functional, organism-based; settings: CCRF-CEM, 96 h
[13] = test system: MCF7; assay: Antiproliferative activity against Homo sapiens (human) MCF7 cells by MTT assay; format: functional, cell-based
[14] = test system: MIA PaCa-2; assay: Antiproliferative activity against Homo sapiens (human) MIAPaCa2 cells by MTT assay; format: functional, cell-based
[15] = test system: WI-38; assay: Antiproliferative activity against Homo sapiens (human) WI38 cells by MTT assay; format: cell-based
[16] = test system: L1210; assay: Cytostatic activity against Mus musculus (mouse) L1210 cells after 48 hr by Coulter counting analysis; format: functional, cell-based; settings: Mus musculus, L1210, 48 h
[17] = test system: MOLT-4; assay: Cytostatic activity against Homo sapiens (human) Molt4/C8 cells after 72 hr by Coulter counting analysis; format: functional, cell-based; settings: MOLT-4, 72 h
[18] = test system: SW-620; assay: Antiproliferative activity against Homo sapiens (human) SW620 cells by MTT assay; format: functional, cell-based; settings: Homo sapiens, SW-620
[19] = molecular target: Human immunodeficiency virus type 1 reverse transcriptase (Human immunodeficiency virus 1) (UniProt Q72547); assay: Inhibition of Human immunodeficiency virus 1 recombinant reverse transcriptase at 500 uM
[20] = test system: Reovirus sp.; assay: Antiviral activity against Mammalian orthoreovirus 1 infected Vero cells assessed as inhibition of virus-induced cytopathic effect; format: functional, organism-based
[21] = test system: Coxsackievirus B4; assay: Antiviral activity against Human coxsackievirus B4 infected Vero cells assessed as inhibition of virus-induced cytopathic effect; format: functional, organism-based
[22] = test system: Respiratory syncytial virus; assay: Antiviral activity against Respiratory syncytial virus infected HeLa cells assessed as inhibition of virus-induced cytopathic effect; format: functional, organism-based
[23] = test system: Punta Toro virus; assay: Antiviral activity against Punta Toro virus infected Vero cells assessed as inhibition of virus-induced cytopathic effect; format: functional, organism-based
[24] = test system: Human alphaherpesvirus 2; assay: Antiviral activity against Human herpesvirus 2 strain G infected HEL cells assessed as inhibition of virus-induced cytopathic effect; format: functional, organism-based
[25] = test system: Influenza A virus H3N2; assay: Antiviral activity against Influenza A virus H3N2 infected MDCK cells assessed as inhibition of virus-induced cytopathic effect; format: functional, organism-based

SMILES | Activity [1] | Activity [2] | IC50 [3] [µM] | IC50 [4] [µM] | EC50 [5] [µM] | Activity [6] | Activity [7] | Activity [8] | Activity [9] | IC50 [10] [µM] | Activity [11] | EC50 [12] [µM] | IC50 [13] [µM] | IC50 [14] [µM] | IC50 [15] [µM] | IC50 [16] [µM] | IC50 [17] [µM] | IC50 [18] [µM] | inhibition [19] | Activity [20] | other results
NC/C=C\Cn1ccc(N)nc1=O | inactive | inactive | > 100 | > 500 | 78 | inactive | inactive | inactive | inactive | > 100 | inactive | 96 | > 100 | > 100 | 85.2 | > 500 | > 500 | 53.2 | inactive | inactive | Activity [21]: inactive; Activity [22]: inactive; Activity [23]: inactive; Activity [24]: inactive; Activity [25]: inactive
Cc1cn(C/C=C\CN)c(=O)[nH]c1=O | inactive | inactive | > 100 | 51 | 41 | inactive | inactive | inactive | inactive | 61.6 | inactive | 29 | 49.2 | 93.3 | 54.2 | 43 | 44 | 54.4 | inactive | inactive | Activity [21]: inactive; Activity [22]: inactive; Activity [23]: inactive; Activity [24]: inactive; Activity [25]: inactive
Cc1cn(C/C=C\CN)c(=O)nc1N | inactive | inactive | > 100 | 46 | 38 | inactive | inactive | inactive | inactive | > 100 | inactive | 36 | 67.5 | > 100 | 63 | 45 | 42 | 69.2 | inactive | inactive | Activity [21]: inactive; Activity [22]: inactive; Activity [23]: inactive; Activity [24]: inactive; Activity [25]: inactive
